Counter-ions that a name gives are not always drawn.

One may read the ED50 as the dose at which the effect has come halfway, by size or by number of responders. Higher therefore signals weaker potency. Usually IC50 stands for the concentration needed to halve the response being measured. The low end stands for higher potency, the high end for lower potency.

Chain of Proton Pump (H^+/K^+-ATPase) (P19156 2-1034 limits assumed): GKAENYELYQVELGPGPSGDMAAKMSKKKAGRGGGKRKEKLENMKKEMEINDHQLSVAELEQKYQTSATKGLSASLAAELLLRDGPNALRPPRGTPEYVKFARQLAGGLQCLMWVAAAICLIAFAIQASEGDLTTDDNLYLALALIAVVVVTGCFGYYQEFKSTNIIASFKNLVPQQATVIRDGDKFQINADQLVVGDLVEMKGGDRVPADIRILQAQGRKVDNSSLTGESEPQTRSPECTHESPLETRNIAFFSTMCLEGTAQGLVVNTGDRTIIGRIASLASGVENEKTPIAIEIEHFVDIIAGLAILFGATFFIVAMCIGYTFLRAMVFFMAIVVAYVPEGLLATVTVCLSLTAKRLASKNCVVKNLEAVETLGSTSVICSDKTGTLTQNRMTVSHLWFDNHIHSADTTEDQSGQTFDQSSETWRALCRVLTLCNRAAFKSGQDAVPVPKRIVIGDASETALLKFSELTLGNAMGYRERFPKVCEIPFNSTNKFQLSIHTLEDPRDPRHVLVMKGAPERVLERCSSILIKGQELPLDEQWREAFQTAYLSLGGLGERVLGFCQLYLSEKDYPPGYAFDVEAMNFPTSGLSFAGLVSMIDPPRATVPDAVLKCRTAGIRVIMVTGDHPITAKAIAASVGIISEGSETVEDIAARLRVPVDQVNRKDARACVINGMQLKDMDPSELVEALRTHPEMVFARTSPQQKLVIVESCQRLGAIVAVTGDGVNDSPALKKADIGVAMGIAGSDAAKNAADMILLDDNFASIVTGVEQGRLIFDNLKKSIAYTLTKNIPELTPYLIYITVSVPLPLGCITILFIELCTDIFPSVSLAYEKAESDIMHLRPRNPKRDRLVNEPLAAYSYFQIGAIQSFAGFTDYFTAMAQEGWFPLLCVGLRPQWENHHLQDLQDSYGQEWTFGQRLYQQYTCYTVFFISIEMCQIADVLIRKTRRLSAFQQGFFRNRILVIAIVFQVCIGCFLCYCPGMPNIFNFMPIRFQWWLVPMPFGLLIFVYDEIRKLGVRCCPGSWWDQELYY
Chain of Proton Pump (H^+/K^+-ATPase) (P18434 whole entry partner): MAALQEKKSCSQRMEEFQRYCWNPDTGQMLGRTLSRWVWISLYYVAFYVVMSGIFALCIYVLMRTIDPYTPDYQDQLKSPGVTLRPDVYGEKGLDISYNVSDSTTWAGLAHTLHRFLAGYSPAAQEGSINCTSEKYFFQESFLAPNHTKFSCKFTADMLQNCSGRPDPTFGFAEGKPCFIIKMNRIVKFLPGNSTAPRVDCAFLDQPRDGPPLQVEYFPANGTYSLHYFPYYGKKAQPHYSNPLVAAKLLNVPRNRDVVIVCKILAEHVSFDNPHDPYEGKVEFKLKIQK

The first test relates to basal gastric acid secretion. Briefly: Inhibitory effects on basal gastric acid secretion in pylorus-ligated rats (Shay's rat model). As to conditions: oral, one hour before pylorus ligation, total acid output 5 hours after ligation. The format is in vivo, Sprague Dawley (SD) rats. The method, then:
Inhibitory effects of the compounds of the present invention on basal gastric acid secretion were performed according to Shay's rat model (Shay, H., et al., 1945, gastroenterology, 5, 43-61). Male Sprague Dawley (SD) rats (200±10 g body weight) were divided into […] (n=5) and fasted for 24 hours with free access to water. Control group was orally administered with 0.5% methylcellulose alone and the other groups were orally administered with test compounds suspended in 0.5% methylcellulose solution at doses of 1, 3 and 10 mg/kg/5 ml one hour before pylorus ligation.
Under ether anesthesia, the abdomens of the rats were incised and then the pylorus was ligated. 5 hours after ligation, the animals were sacrificed, and the gastric contents were collected. The collected contents were centrifuged at 1,000×g for 10 minutes to obtain the gastric juice. Total acid output was measured by 0.01N NaOH volume (ueq/ml) for automatic titration of the gastric juice to pH 7.0 and the ED50s of test compounds were calculated using the Litchfield-Wilcoxon method. % inhibitory activity was calculated from the following equation and the results are shown in Table 2. % inhibitory activity of test compound=(total acid output of control group−total acid output of the group treated with test compounds)/total acid output of control group×100
With `Cc1[nH]c2c(-c3ccc4ccccc4c3)nccc2c1C.Cl` [Example 402, 2,3-dimethyl-7-(naphthalen-2-yl)-1H-pyrrolo[2,3-c]pyridine hydrochloride], the ED50 was determined as 11.2 mg/kg.
With `Cc1c(C)n(Cc2ccccc2)c2c(N3CCc4ccccc4C3)nccc12.Cl` [Example 469, 1-benzyl-7-(1,2,3,4-tetrahydroisoquinolin-2-yl)-2,3-dimethyl-1H-pyrrolo[2,3-c]pyridine hydrochloride], the 50% effective dose (ED50) came out at 1.4 mg/kg.
Still for that read-out and setting: as for `Cc1c(C)n(Cc2ccc(C(C)(C)C)cc2)c2c(N3CCc4ccccc4C3)nccc12.Cl` [Example 507, 1-(4-tert-butylbenzyl)-7-(1,2,3,4-tetrahydroisoquinolin-2-yl)-2,3-dimethyl-1H-pyrrolo[2,3-c]pyridine hydrochloride], the figure is 3.1 mg/kg.
`Cc1[nH]c2c(N3CCc4ccccc4C3)nccc2c1C.Cl` [Example 468, 7-(1,2,3,4-tetrahydroisoquinolin-2-yl)-2,3-dimethyl-1H-pyrrolo[2,3-c]pyridine hydrochloride] gave an ED50 of 5.2 mg/kg.
Still for that read-out and setting: as for `Cc1c(C)n(Cc2cccc(F)c2)c2c(N3CCc4ccccc4C3C)nccc12.Cl` (stereo not shown) [Example 557, 2-[1-(3-fluorobenzyl)-2,3-dimethyl-1H-pyrrolo[2,3-c]pyridin-7-yl]-1-methyl-1,2,3,4-tetrahydroisoquinoline hydrochloride], the figure is 4.1 mg/kg; as for `CCCn1c(C)c(C)c2ccnc(N3CCc4ccccc4C3)c21.Cl` [Example 473, 1-propyl-7-(1,2,3,4-tetrahydroisoquinolin-2-yl)-2,3-dimethyl-1H-pyrrolo[2,3-c]pyridine hydrochloride], 2.8 mg/kg.
Compound `Cc1ccccc1CNc1nccc2c(C)c(C)n(CC(C)C)c12.Cl` [Example 210, 1-isobutyl-2,3-dimethyl-7-(2-methylbenzylamino)-1H-pyrrolo[2,3-c]pyridine hydrochloride] displayed an ED50 of 1.9 mg/kg.
On the same count and under the same terms, then `Cc1c(C)n(Cc2cccc(F)c2)c2c(NCc3ccc(F)cc3)nccc12.Cl` [Example 207, 1-(3-fluorobenzyl)-7-(4-fluorobenzylamino)-2,3-dimethyl-1H-pyrrolo[2,3-c]pyridine hydrochloride], with 8.3 mg/kg.
On to `Cc1c(C)n(Cc2ccc(F)cc2)c2c(NCc3ccc(Cl)cc3)nccc12.Cl` [Example 218, 7-(4-chlorobenzylamino)-1-(4-fluorobenzyl)-2,3-dimethyl-1H-pyrrolo[2,3-c]pyridine hydrochloride], for which the ED50 came out at 4.1 mg/kg.

The next test concerns the target Proton Pump (H^+/K^+-ATPase) (Sus scrofa, UniProt P19156). The test can be described thus: Inhibitory effects on proton pump (H^+/K^+-ATPase) activity. As to conditions: hog gastric vesicles; K^+ stimulated H^+/K^+-ATPase activity; 30 minutes at 37° C. In kind it is biochemical.
`Cc1[nH]c2c(-c3ccc4ccccc4c3)nccc2c1C.Cl` [Example 402, 2,3-dimethyl-7-(naphthalen-2-yl)-1H-pyrrolo[2,3-c]pyridine hydrochloride] registered a 50% inhibitory concentration (IC50) of 63 nM.
Regarding `Cc1c(C)n(Cc2ccccc2)c2c(N3CCc4ccccc4C3)nccc12.Cl` [Example 469, 1-benzyl-7-(1,2,3,4-tetrahydroisoquinolin-2-yl)-2,3-dimethyl-1H-pyrrolo[2,3-c]pyridine hydrochloride], half-maximal inhibition (IC50) required 52 nM.
In the case of `Cc1[nH]c2c(N3CCc4ccccc4C3)nccc2c1C.Cl` [Example 468, 7-(1,2,3,4-tetrahydroisoquinolin-2-yl)-2,3-dimethyl-1H-pyrrolo[2,3-c]pyridine hydrochloride], the IC50 came to 190 nM.
On the same count and under the same terms, as for `Cc1c(C)n(Cc2cccc(F)c2)c2c(N3CCc4ccccc4C3C)nccc12.Cl` (stereo not shown) [Example 557, 2-[1-(3-fluorobenzyl)-2,3-dimethyl-1H-pyrrolo[2,3-c]pyridin-7-yl]-1-methyl-1,2,3,4-tetrahydroisoquinoline hydrochloride], the figure is 146 nM.
The same measure, in the same setting: then `CCCn1c(C)c(C)c2ccnc(N3CCc4ccccc4C3)c21.Cl` [Example 473, 1-propyl-7-(1,2,3,4-tetrahydroisoquinolin-2-yl)-2,3-dimethyl-1H-pyrrolo[2,3-c]pyridine hydrochloride], with 470 nM.
`Cc1ccccc1CNc1nccc2c(C)c(C)n(CC(C)C)c12.Cl` [Example 210, 1-isobutyl-2,3-dimethyl-7-(2-methylbenzylamino)-1H-pyrrolo[2,3-c]pyridine hydrochloride] had an IC50 of 54 nM.
Still for that read-out and setting: as for `Cc1ccc(Cn2c(C)c(C)c3cc(C(=O)N4CCN(C)CC4)nc(N4CCc5ccccc5C4)c32)cc1` [Example 828, [7-(3,4-dihydro-1H-isoquinolin-2-yl)-1-(4-methylbenzyl)-2,3-dimethyl-1H-pyrrolo[2,3-c]pyridin-5-yl]-(4-methylpiperazin-1-yl)-methanone hydrochloride], the figure is 94 nM; as for `C=CCn1c(C)c(C)c2ccnc(N(C)Cc3ccc(F)cc3)c21` [Example 140, 1-allyl-7-[N-(4-fluorobenzyl)-N-methyl]amino-2,3-dimethyl-1H-pyrrolo[2,3-c]pyridine hydrochloride], 240 nM.
On to `Cc1c(C)n(Cc2cccc(F)c2)c2c(N3CCc4ccccc4C3)nc(C(=O)n3ccnc3)cc12` [Example 840, [7-(3,4-dihydro-1H-isoquinolin-2-yl)-1-(3-fluorobenzyl)-2,3-dimethyl-1H-pyrrolo[2,3-c]pyridin-5-yl]-(imidazol-1-yl)-methanone hydrochloride], for which the IC50 amounted to 169 nM.
On the same count and under the same terms, then `Cc1c(C)n(Cc2ccccc2F)c2c(CCc3ccccc3)nccc12` [Example 450, 1-(2-fluorobenzyl)-2,3-dimethyl-7-phenethyl-1H-pyrrolo[2,3-c]pyridine hydrochloride], with 270 nM; and `C=CCn1c(C)c(C)c2ccnc(N3CCc4ccccc4C3CC)c21` (stereo not shown) [Example 577, 2-(1-allyl-2,3-dimethyl-1H-pyrrolo[2,3-c]pyridin-7-yl)-1-ethyl-1,2,3,4-tetrahydroisoquinoline hydrochloride], with 140 nM; and `Cc1[nH]c2c(NCc3ccccc3)nccc2c1C` [Example 175, 7-benzylamino-2,3-dimethyl-1H-pyrrolo[2,3-c]pyridine hydrochloride], with 80 nM.
Same read-out and setting: then `Cc1c(C)n(Cc2ccc(F)cc2)c2c(N3CCc4ccccc4C3)nc(C(=O)N3CCN(C)CC3)cc12` [Example 831, [7-(3,4-dihydro-1H-isoquinolin-2-yl)-1-(4-fluorobenzyl)-2,3-dimethyl-1H-pyrrolo[2,3-c]pyridin-5-yl]-(4-methylpiperazin-1-yl)-methanone hydrochloride], with 39 nM; and `Cc1c(C)n(Cc2ccccc2)c2c(NCc3ccc(F)cc3)nc(C(=O)N3CCOCC3)cc12` [Example 909, [1-benzyl-7-(4-fluorobenzylamino)-2,3-dimethyl-1H-pyrrolo[2,3-c]pyridin-5-yl]-(morpholin-4-yl)-methanone hydrochloride], with 90 nM; and `Cc1c(C)n(Cc2cccc(F)c2)c2c(N3CCc4ccccc4C3)nc(CN3CCOCC3)cc12` [Example 872, 2-[1-(3-fluorobenzyl)-2,3-dimethyl-5-(morpholin-4-ylmethyl)-1H-pyrrolo[2,3-c]pyridin-7-yl]-1,2,3,4-tetrahydroisoquinoline hydrochloride], with 43 nM.
Still for that read-out and setting: then `Cc1c(C)n(Cc2ccccc2)c2c(NCc3ccc(F)cc3)nccc12` [Example 214, 1-benzyl-7-(4-fluorobenzylamino)-2,3-dimethyl-1H-pyrrolo[2,3-c]pyridine hydrochloride], with 290 nM; and `CCC1c2ccccc2CCN1c1nccc2c(C)c(C)n(CCOC)c12` (stereo not shown) [Example 585, 1-ethyl-2-[1-(2-methoxyethyl)-2,3-dimethyl-1H-pyrrolo[2,3-c]pyridin-7-yl]-1,2,3,4-tetrahydroisoquinoline hydrochloride], with 370 nM.
`CSc1ccc(-c2nccc3c(C)c(C)n(Cc4ccc(C)cc4)c23)cc1` [Example 267, 2,3-dimethyl-1-(4-methylbenzyl)-7-(4-methylsulfanylphenyl)-1H-pyrrolo[2,3-c]pyridine hydrochloride] yielded an IC50 of 110 nM.
The same measure, in the same setting: as for `CCC1c2ccccc2CCN1c1nccc2c(C)c(C)n(COC)c12` (stereo not shown) [Example 584, 1-ethyl-2-(1-methoxymethyl-2,3-dimethyl-1H-pyrrolo[2,3-c]pyridin-7-yl)-1,2,3,4-tetrahydroisoquinoline hydrochloride], the figure is 330 nM.
`CCCn1c(C)c(C)c2ccnc(N(C)Cc3ccc(F)cc3)c21` [Example 150, 7-[N-(4-fluorobenzyl)-N-methyl]amino-2,3-dimethyl-1-propyl-1H-pyrrolo[2,3-c]pyridine hydrochloride] gave an IC50 of 340 nM.
The same measure, in the same setting: as for `Cc1ccc(-c2nccc3c(C)c(C)n(Cc4ccc(Cl)cc4)c23)cc1` [Example 283, 1-(4-chlorobenzyl)-2,3-dimethyl-7-(p-tolyl)-1H-pyrrolo[2,3-c]pyridine hydrochloride], the figure is 1740 nM.
On to `Cc1c(C)n(Cc2cccc(F)c2)c2c(N3CCc4ccccc4C3)nc(C(=O)N3CCOCC3)cc12` [Example 779, [7-(3,4-dihydro-1H-isoquinolin-2-yl)-1-(3-fluorobenzyl)-2,3-dimethyl-1H-pyrrolo[2,3-c]pyridin-5-yl]-(morpholin-4-yl)-methanone hydrochloride], for which the IC50 stood at 62 nM.
The same measure, in the same setting: then `Cc1c(C)n(Cc2ccc(F)cc2)c2c(CCc3ccccc3)nccc12` [Example 455, 1-(4-fluorobenzyl)-2,3-dimethyl-7-phenethyl-1H-pyrrolo[2,3-c]pyridine hydrochloride], with 400 nM.
Same read-out and setting: then `COCCn1c(C)c(C)c2ccnc(N(C)Cc3ccc(F)cc3)c21` [Example 143, 7-[N-(4-fluorobenzyl)-N-methyl]amino-1-(2-methoxyethyl)-2,3-dimethyl-1H-pyrrolo[2,3-c]pyridine hydrochloride], with 300 nM; and `C#CCn1c(C)c(C)c2cc(Cl)nc(N3CCc4ccccc4C3)c21` [Example 659, 2-[5-chloro-2,3-dimethyl-1-(prop-2-ynyl)-1H-pyrrolo[2,3-c]pyridin-7-yl]-1,2,3,4-tetrahydroisoquinoline], with 439 nM; and `CCCn1c(C)c(C)c2cc(C(=O)N3CCOCC3)nc(N3CCc4ccccc4C3)c21` [Example 781, [7-(3,4-dihydro-1H-isoquinolin-2-yl)-2,3-dimethyl-1-propyl-1H-pyrrolo[2,3-c]pyridin-5-yl]-(morpholin-4-yl)-methanone hydrochloride], with 39 nM.
Still for that read-out and setting: as for `Cc1c(C)n(Cc2cccnc2)c2c(N3CCc4ccccc4C3)nccc12` [Example 516, 1-(pyridin-3-ylmethyl)-7-(1,2,3,4-tetrahydroisoquinolin-2-yl)-2,3-dimethyl-1H-pyrrolo[2,3-c]pyridine hydrochloride], the figure is 124 nM; as for `CCCn1c(C)c(C)c2ccnc(NCc3ccc(F)cc3)c21` [Example 228, 7-(4-fluorobenzylamino)-2,3-dimethyl-1-propyl-1H-pyrrolo[2,3-c]pyridine hydrochloride], 133 nM.

These data come from patent US7662832B2, “Pyrrolo[2,3-c]pyridine derivatives and processes for the preparation thereof” (priority 2004, dated 2010).
